ChEMBL document CHEMBL4311950, “Hip To Be Square: Oxetanes as Design Elements To Alter Metabolic Pathways” (J Med Chem, 2019)
Values after ≈ are worked out from the molar mass of the structure shown.

Columns and labels:
[1] = physchem; conditions: pH 2.3
Description: Dissociation constant, pKa of compound at pH 2.3 to 10.8 by pressure assisted capillary electrophoresis-MS analysis

[2] = in vitro; conditions: human, hepatocytes
Description: Intrinsic clearance in human hepatocytes assessed per million cells at 50 uM in presence of NADPH by HPLC-MS analysis

[3] = physchem; conditions: buffer, pH 7.4
Description: Aqueous solubility of the compound in pH 7.4 HBSS buffer HPLC-MS analysis

[4] = physchem; conditions: octanol/water, pH 7.4
Description: Octanol-water distribution coefficient, log D of the compound at pH 7.4 by RP-HPLC analysis

[5] = in vitro; conditions: human, liver microsomes
Description: Intrinsic clearance in human liver microsomes at 50 uM in presence of NADPH by HPLC-MS analysis

Structure (SMILES)	pKa [1]	hepatocyte CLint at 50 µM [2] [µL/min/1e6 cells]	solubility [3] [µM]	logD [4]	microsomal CLint at 50 µM [5] [µL/min/mg]
COc1ccc(-c2nnc(C(=O)N3CC(Oc4ccc(CN5CCCC56COC6)cc4)C3)o2)cc1	6	48.7	3 (≈ 1.43 µg/mL)	–	–
O=C(c1nnc(-c2ccccc2)o1)N1CC(Oc2ccc(CN3CC4(COC4)C3)cc2)C1	8	6.1	89 (≈ 38.5 µg/mL)	–	–
COc1cc(OC2CN(C(=O)c3nnc(-c4ccc(C(F)F)cc4)o3)C2)ccc1CN1CC2(COC2)C1	8.2	19.4	87 (≈ 44.6 µg/mL)	2.1	–
COc1ccc(-c2nnc(C(=O)N3CC(Oc4ccc(CN5CC6(COC6)C5)c(C)c4)C3)o2)cc1	8.2	17	73 (≈ 34.8 µg/mL)	2.6	–
COc1ccc(-c2nnc(C(=O)N3CC(Oc4ccc(CN5CC6CC(C5)O6)cc4)C3)o2)cc1	7.3	38	3 (≈ 1.39 µg/mL)	2.9	–
O=C(c1nnc(-c2ccccc2)o1)N1CC(Oc2ccc(CN3CC4(COC4)C3)c(Cl)c2)C1	7.7	32.7	90 (≈ 42 µg/mL)	3	–
COc1ccc(CN2CCCC23COC3)cc1	–	–	610 (≈ 142 µg/mL)	1.8	8.1
O=C(c1nnc(-c2ccc(OC(F)F)cc2)o1)N1CC(Oc2ccc(CN3CC4(COC4)C3)cc2)C1	–	27.2	51 (≈ 25.4 µg/mL)	2.5	–
COc1ccc(CN2CCC3(CC2)COC3)cc1	8.56	–	750 (≈ 186 µg/mL)	0.8	20.6
O=C(c1nnc(-c2ccc(C(F)F)cc2)o1)N1CC(Oc2ccc(CN3CC4(COC4)C3)cc2)C1	8.5	5.3	86 (≈ 41.5 µg/mL)	2.4	–
O=C(NC1C2CC3CC1CC(O)(C3)C2)c1cnc(OC2COC2)nc1C1CCC1 (configuration not stated)	–	–	818 (≈ 327 µg/mL)	1.6	6.1
O=C(c1nnc(-c2ccc(F)cc2)o1)N1CC(Oc2ccc(CN3CC4(COC4)C3)cc2)C1	8.2	1.9	735 (≈ 331 µg/mL)	2	–
COc1cc(CN2CCCC23COC3)ccc1OC1CN(C(=O)c2nnc(-c3ccc(C(F)F)cc3)o2)C1	6.1	38.5	39 (≈ 20.5 µg/mL)	3.8	–
COc1cc(CN2CCCC23COC3)ccc1OC1CN(C(=O)c2nnc(-c3ccccc3)o2)C1	6	25	221 (≈ 105 µg/mL)	3.5	–
COc1ccc(-c2nnc(C(=O)N3CC(Oc4ccc(COCC5(C)COC5)cc4)C3)o2)cc1	–	–	3 (≈ 1.4 µg/mL)	–	> 300
COc1ccc(-c2nnc(C(=O)N3CC(Oc4ccc(CN5CC6(CCCO6)C5)cc4)C3)o2)cc1	–	10.4	495 (≈ 236 µg/mL)	–	–

Structure (SMILES)	pKa [1]	hepatocyte CLint at 50 µM [2] [µL/min/1e6 cells]	solubility [3] [µM]	logD [4]	microsomal CLint at 50 µM [5] [µL/min/mg]
COc1ccc(CN2CC3(COC3)C2)cc1	8.25	–	364 (≈ 79.8 µg/mL)	0.4	< 3
O=C(NC1C2CC3CC1CC(O)(C3)C2)c1cnc(OC2COC2)nc1C1CCCC1 (configuration not stated)	2.6	–	476 (≈ 197 µg/mL)	1.9	2.8
COc1cc(OC2CN(C(=O)c3nnc(-c4ccc(C(F)F)cc4)o3)C2)ccc1CN1CCCC12COC2	7	42.7	43 (≈ 22.6 µg/mL)	4.2	–
COc1ccc(-c2nnc(C(=O)N3CC(Oc4ccc(CN5CC6(CCOC6)C5)cc4)C3)o2)cc1	–	10.8	82 (≈ 39.1 µg/mL)	–	–
COc1cc(OC2CN(C(=O)c3nnc(-c4ccccc4)o3)C2)ccc1CN1CCCC12COC2	8	27.5	60 (≈ 28.6 µg/mL)	3.8	–
COc1cc(CN2CC3(COC3)C2)ccc1OC1CN(C(=O)c2nnc(-c3ccc(C(F)F)cc3)o2)C1	8.9	19.5	82 (≈ 42 µg/mL)	2.2	–
Cc1cc(OC2CN(C(=O)c3nnc(-c4ccccc4)o3)C2)ccc1CN1CCCC2(COC2)C1	7.6	–	–	3.6	–
O=C(c1nnc(-c2ccccc2)o1)N1CC(Oc2ccc(CN3CC4(COC4)C3)cc2Cl)C1	7.5	12.4	76 (≈ 35.5 µg/mL)	2.7	–
O=C(NC1C2CC3CC1CC(O)(C3)C2)c1cnc(NC2COC2)nc1C1CC1 (configuration not stated)	2.8	–	580 (≈ 223 µg/mL)	1.1	< 2
O=C(NC1C2CC3CC1CC(O)(C3)C2)c1cnc(NC2COC2)nc1C1CCCC1 (configuration not stated)	2.6	–	> 1820	2.1	< 2
O=C(NC1C2CC3CC1CC(O)(C3)C2)c1cnc(NC2COC2)nc1C1CCC1 (configuration not stated)	2.4	–	> 2520	1.6	< 3.5
COc1ccc(-c2nnc(C(=O)N3CC(Oc4ccc(CN(C)CC5(C)COC5)c(C)c4)C3)o2)cc1	8	–	–	3	–
COc1ccc(-c2nnc(C(=O)N3CC(Oc4ccc(CN5CC6(COC6)C5)cc4C)C3)o2)cc1	8.4	18.6	74 (≈ 35.3 µg/mL)	2.5	–
COc1ccc(CN2CCCC3(COC3)C2)cc1	8.08	–	744 (≈ 184 µg/mL)	1.5	28.3
O=C(NC1C2CC3CC1CC(O)(C3)C2)c1cnc(OC2COC2)nc1C1CC1 (configuration not stated)	–	–	867 (≈ 334 µg/mL)	2	< 2
COc1ccc(-c2nnc(C(=O)N3CC(Oc4ccc(CNCC5(C)COC5)cc4)C3)o2)cc1	8.2	–	61 (≈ 28.3 µg/mL)	2	103
